Values quoted from earlier work, collected in patent US20060106004A1, “Unique methods and formulations of bio-identical sex steroids for the treatment of pathophysiologic aberrations of menopause” (priority 2004, published 2006).

Legend:
metastatic breast cancer = conditions: doses from 2.5 to 15 mg/day
mammary carcinoma = conditions: following radiation or carcinogenesis
uterus = conditions: ovariectomized rats

C[C@]12CC[C@@H]3c4ccc(O)cc4CC[C@H]3[C@@H]1C[C@@H](O)[C@@H]2O [Estriol, estriol]
proportion of women with arrested growth and remission of metastatic lesions (metastatic breast cancer): Over ⅓
reduction of mammary carcinoma rates (mammary carcinoma): 80%
stimulation of uterine weights (uterus): does not significantly stimulate uterine weights
